System: PANC-1 (human pancreatic cancer-derived cell line)
Experiment: MTS assay on Panc-1 (human pancreas carcinoma cell line)
Assay type: cell-based
Details: 144 h; for IC50: PANC-1, MTS method, cell survival 6 days after exposure, 4-parameter logistic fit; for inhibition at 30 µM / inhibition at 0.625 µM / inhibition at 1 µM / inhibition at 10 µM: PANC-1, MTS, 6 days; for inhibition at 30 µM: read-out: Growth inhibition (%) 30 μM; for inhibition at 0.625 µM: read-out: Growth inhibition (%) 0.625 μM; for inhibition at 1 µM: read-out: Growth inhibition (%) 1 μM; for inhibition at 10 µM: read-out: Growth inhibition (%) 10 μM
Experimental: Experimental Example: MTS Assay on Panc-1 (Human Pancreas Carcinoma Cell Line) cell line name: PANC-1 derived from: human pancreas glandular cancer purchased from: ATCC product code: CRL-1469 proliferation medium: D-MEM+10% FBS culture environment: 37° C., 5% CO2 seeding density: 5.0×10^5 cells/25 cm^2 solvent control substance: DMSO (HYBRI-MAX®, Sigma-Aldrich Corp.) test substance: Example compound (ID-1-ID-13) A DMSO solution of the test substance was prepared by serially diluting (common ratio 2) each test substance with DMSO.
A solvent control substance sample and a test substance sample were exposed to a human pancreatic cancer-derived cell line (PANC-1), and the survival rate of the cell 6 days later was measured by the MTS method. The measurement was performed 3 times and the average thereof was adopted. The survival rate of the cell in each test substance sample was calculated by the following formula 1 with the value at exposure of the solvent control substance sample as 100% survival rate. […]
survival rate (%)=100×absorbance of each test substance sample/absorbance of solvent control substance sample formula 1 Normalized values calculated by the following formula 2 from the absorbances of each sample at 492 nm and 630 nm and the absorbances of the blank were used as the absorbances in the above-mentioned formula 1. […]
normalized value (ABS492 nm-630 nm)=(ABSsa 492 nm-ABSsa 630 nm)−(ABSbl 492 nm-ABSbl 630 nm) ABSsa 492: absorbance of each sample at wavelength 492 nm ABSsa 630: absorbance of each sample at wavelength 630 nm ABSbl 492: absorbance of blank corresponding to each sample at wavelength 492 nm ABSbl 630: absorbance of blank corresponding to each sample at wavelength 630 nm formula 2 […]
The analysis was performed by using nplr package on R (The R Foundation for Statistical Computing) and estimating the logistic regression curve (4-parameter).

Compound | IC50 [µM] | inhibition at 30 µM [%] | inhibition at 0.625 µM [%] | inhibition at 1 µM [%] | inhibition at 10 µM [%]
CC(C)C[C@H]1ON(C(=O)/C=C/c2nn(C)c3ccccc23)[C@H]2CN(CCC(N)=O)C(=O)[C@H](CC(C)C)N2C1=O [ID-22, 3-((3R,6S,9aS)-3,6-diisobutyl-1-((E)-3-(1-methyl-1H-indazol-3-yl)acryloyl)-4,7-dioxohexahydropyrazino[2,1-c][1,2,4]oxadiazin-8(1H)-yl)propanamide] | 15.6 | 95.4 | – | – | –
CC(C)C[C@H]1ON(C(=O)/C=C/c2nc3ccccc3s2)[C@H]2CN(CCC(N)=O)C(=O)[C@H](CC(C)C)N2C1=O [ID-23, 3-((3R,6S,9aS)-1-((E)-3-(benzo[d]thiazol-2-yl)acryloyl)-3,6-diisobutyl-4,7-dioxohexahydropyrazino[2,1-c][1,2,4]oxadiazin-8(1H)-yl)propanamide] | 0.77 | 102 | – | – | –
CC(C)C[C@H]1ON(C(=O)/C=C/c2ccc3ccccc3c2)[C@H]2CN(CCC(N)=O)C(=O)[C@H](CC(C)C)N2C1=O [ID-24, 3-((3R,6S,9aS)-3,6-diisobutyl-1-((E)-3-(naphthalen-2-yl)acryloyl)-4,7-dioxohexahydropyrazino[2,1-c] [1,2,4]oxadiazin-8(1H)-yl)propanamide] | 15.8 | 102 | – | – | –
CC(C)(C)C[C@H]1C(=O)N(CC2CCCCC2)C[C@@H]2N(C(=O)/C=C/c3cnc4ccccc4n3)O[C@H](CC3CCCCC3)C(=O)N21 [ID-25, (3R,6S,9aS)-3,8-bis(cyclohexylmethyl)-6-neopentyl-1-((E)-3-(quinoxalin-2-yl)acryloyl)tetrahydropyrazino[2,1-c] [1,2,4]oxadiazine-4,7(3H,6H)-dione] | – | 98.5 | 4.7 | 6 | –
CC(C)(C)C[C@H]1C(=O)N(CC2CCNCC2)C[C@@H]2N(C(=O)/C=C/c3cnc4ccccc4n3)O[C@H](CC3CCCCC3)C(=O)N21 [ID-26, (3R,6S,9aS)-3-(cyclohexylmethyl)-6-neopentyl-8-(piperidin-4-ylmethyl)-1-((E)-3-(quinoxalin-2-yl)acryloyl)tetrahydropyrazino[2,1-c][1,2,4]oxadiazine-4,7(3H,6H)-dione] | – | – | 4.2 | 96.1 | –
CC(C)C[C@H]1ON(C(=O)/C=C/c2ccccn2)[C@H]2CN(CCC(=O)Nc3nccs3)C(=O)[C@H](CC(C)C)N2C1=O [ID-27, 3-((3R,6S,9aS)-3,6-diisobutyl-4,7-dioxo-1-((E)-3-(pyridin-2-yl)acryloyl)hexahydropyrazino[2,1-c][1,2,4]oxadiazin-8 (1H)-yl)—N-(thiazol-2-yl)propanamide] | 8.6 | 99.3 | – | – | –
CONC(=O)CCN1C[C@@H]2N(C(=O)/C=C/c3ccccn3)O[C@H](CC(C)C)C(=O)N2[C@@H](CC(C)C)C1=O [ID-28, 3-((3R,6S,9aS)-3,6-diisobutyl-4,7-dioxo-1-((E)-3-(pyridin-2-yl)acryloyl)hexahydropyrazino[2,1-c][1,2,4]oxadiazin-8(1H)-yl)—N-methoxypropanamide] | 16.2 | 96.2 | – | – | –
CC(C)C[C@H]1ON(C(=O)/C=C/c2nnc(C3CC3)s2)[C@H]2CN(CCC(N)=O)C(=O)[C@H](CC(C)C)N2C1=O [ID-29, 3-((3R,6S,9aS)-1-((E)-3-(5-cyclopropyl-1,3,4-thiadiazol-2-yl)acryloyl)-3,6-diisobutyl-4,7-dioxohexahydropyrazino[2,1-c][1,2,4]oxadiazin-8(1H)-yl)propanamide] | 2.3 | – | – | – | 101
CC(C)C[C@H]1ON(C(=O)/C=C/c2cccc3nccnc23)[C@H]2CN(CCC(N)=O)C(=O)[C@H](CC(C)C)N2C1=O [ID-30, 3-((3R,6S,9aS)-3,6-diisobutyl-4,7-dioxo-1-((E)-3-(quinoxalin-5-yl)acryloyl)hexahydropyrazino[2,1-c][1,2,4]oxadiazin-8 (1H)-yl)propanamide] | – | – | – | – | 58.4
CC(C)C[C@H]1ON(C(=O)/C=C/c2ccc3cccnc3n2)[C@H]2CN(CCC(N)=O)C(=O)[C@H](CC(C)C)N2C1=O [ID-31, 3-((3R,6S,9aS)-1-((E)-3-(1,8-naphthyridin-2-yl)acryloyl)-3,6-diisobutyl-4,7-dioxohexahydropyrazino[2,1-c][1,2,4]oxadiazin-8(1H)-yl)propanamide] | 2.7 | – | – | – | 99.3
CC(C)C[C@H]1ON(C(=O)/C=C/c2nc3cccnc3s2)[C@H]2CN(CCC(N)=O)C(=O)[C@H](CC(C)C)N2C1=O [ID-32, 3-((3R,6S,9aS)-3,6-diisobutyl-4,7-dioxo-1-((E)-3-(thiazolo[5,4-b]pyridin-2-yl)acryloyl)hexahydropyrazino[2,1-c][1,2,4]oxadiazin-8(1H)-yl)propanamide] | 0.62 | – | – | – | 101
CCOC(=O)c1cnc(/C=C/C(=O)N2O[C@H](CC(C)C)C(=O)N3[C@@H]2CN(CCC(N)=O)C(=O)[C@@H]3CC(C)C)s1 [ID-33, ethyl 2-((E)-3-((3R,6S,9aS)-8-(3-amino-3-oxopropyl)-3,6-diisobutyl-4,7-dioxohexahydropyrazino[2,1-c][1,2,4]oxadiazin-1(6H)-yl)-3-oxoprop-1-en-1-yl)thiazole-5-carboxylate] | 1.1 | – | – | – | 99.9
Cc1nc(/C=C/C(=O)N2O[C@H](CC(C)C)C(=O)N3[C@@H]2CN(CCC(N)=O)C(=O)[C@@H]3CC(C)C)sc1C [ID-34, 3-((3R,6S,9aS)-1-((E)-3-(4,5-dimethylthiazol-2-yl)acryloyl)-3,6-diisobutyl-4,7-dioxohexahydropyrazino[2,1-c][1,2,4]oxadiazin-8(1H)-yl)propanamide] | 2.6 | – | – | – | 95.5
CC(C)C[C@H]1CN(CCCN(C)C2CCN(C)CC2)C[C@@H]2N(C(=O)/C=C/c3ccccn3)O[C@H](CC(C)C)C(=O)N12 [ID-35, (3R,6S,9aS)-3,6-diisobutyl-8-(3-(methyl(1-methylpiperidin-4-yl)amino)propyl)-1-((E)-3-(pyridin-2-yl)acryloyl)hexahydropyrazino[2,1-c][1,2,4]oxadiazin-4(3H)-one] | 5 | – | – | – | 99
CC(C)C[C@H]1ON(C(=O)/C=C/c2ccccn2)[C@H]2CN(C3CCN(Cc4ncccn4)CC3)C(=O)[C@H](CC(C)C)N2C1=O [ID-36, (3R,6S,9aS)-3,6-diisobutyl-1-((E)-3-(pyridin-2-yl)acryloyl)-8-(1-(pyrimidin-2-ylmethyl)piperidin-4-yl)tetrahydropyrazino[2,1-c][1,2,4]oxadiazine-4,7(3H,6H)-dione] | – | – | – | – | 76
CC(C)C[C@H]1ON(C(=O)/C=C/c2nc3c(s2)CCCC3)[C@H]2CN(CCC(N)=O)C(=O)[C@H](CC(C)C)N2C1=O [ID-37, 3-((3R,6S,9aS)-3,6-diisobutyl-4,7-dioxo-1-((E)-3-(4,5,6,7-tetrahydrobenzo[d]thiazol-2-yl)acryloyl)hexahydropyrazino[2,1-c][1,2,4]oxadiazin-8 (1H)-yl)propanamide] | 4.7 | – | – | – | 95.8
CC(C)C[C@H]1ON(C(=O)/C=C\c2ccccc2)[C@H]2CN(C3CCN(C)CC3)C(=O)[C@H](CC(C)C)N2C1=O [ID-38, (3R,6S,9aS)-3,6-diisobutyl-8-(1-methylpiperidin-4-yl)-1-((Z)-3-phenylacryloyl)tetrahydropyrazino[2,1-c] [1,2,4] oxadiazine-4,7 (3H, 6H)-dione] | 8 | – | – | – | 82.6
CC(C)C[C@H]1ON(C(=O)/C=C/c2ccccc2)[C@H]2CN(C3CCN(C)CC3)C(=O)[C@H](CC(C)C)N2C1=O [ID-39, (3R,6S,9aS)-1-cinnamoyl-3,6-diisobutyl-8-(1-methylpiperidin-4-yl)tetrahydropyrazino[2,1-c][1,2,4]oxadiazine-4,7 (3H, 6H)-dione] | 8.9 | – | – | – | 80.8
CC(C)C[C@H]1ON(C(=O)/C=C/c2ccccn2)[C@H]2CN(C3CCN(C4CCN(C(C)C)CC4)CC3)C(=O)[C@H](CC(C)C)N2C1=O [ID-40, (3R,6S,9aS)-3,6-diisobutyl-8-(1′-isopropyl-[1,4′-bipiperidin]-4-yl)-1-((E)-3-(pyridin-2-yl)acryloyl)tetrahydropyrazino[2,1-c][1,2,4]oxadiazine-4,7(3H,6H)-dione] | 4 | – | – | – | 102
CC(=O)N1CCC(N2CCC(N3C[C@@H]4N(C(=O)/C=C/c5ccccn5)O[C@H](CC(C)C)C(=O)N4[C@@H](CC(C)C)C3=O)CC2)CC1 [ID-41, (3R,6S,9aS)-8-(1′-acetyl-[1,4′-bipiperidin]-4-yl)-3,6-diisobutyl-1-((E)-3-(pyridin-2-yl)acryloyl)tetrahydropyrazino[2,1-c][1,2,4]oxadiazine-4,7(3H,6H)-dione] | 6.3 | – | – | – | 98.5

Reference: patent US20230265104A1, “NOVEL HETEROCYCLIC COMPOUNDS” (PRISM BIOLAB CO., LTD., priority 2020, published 2023)
